Measured values reported in patent US9751837B2, “Kinase inhibitors” (RESPIVERT LIMITED, priority 2014, dated 2017).
Values after ≈ are worked out from the molar mass of the structure shown. Structures can show the parent of a compound that is named as a salt. Where two headings read alike, the source gives them in different places.

Experiments:
[1] = Stability of pharmaceutical formulations (HPLC); type: physicochemical; details: 1 mg/mL solution; for Purity (%) at week n = 4: 4 weeks
Method: The samples were sonicated to achieve clear solutions having the following properties: Osmolality (mOsm/kg): 310 (Na), 314 (HCl); pH: 7.00 (Na), 7.05 (HCl). 0.5 mL of the stock solutions were diluted to 1 mL with 20% DMSO in water & injected for purity analysis by HPLC. The remaining stock solutions were then split into aliquots of 0.5 mL in HPLC vials, and stored at various conditions in duplicate. Samples were stored at 5 and 25° C., before being analysed by HPLC at 1, 2 and 4 weeks. Separate samples were stored at 40° C. and analysed at 4 weeks.

Lck = Lck (Homo sapiens (Human), UniProt P06239); assay: KINOMEscan dissociation constant, Lck; type: binding
Lck, sequence (P06239 whole entry): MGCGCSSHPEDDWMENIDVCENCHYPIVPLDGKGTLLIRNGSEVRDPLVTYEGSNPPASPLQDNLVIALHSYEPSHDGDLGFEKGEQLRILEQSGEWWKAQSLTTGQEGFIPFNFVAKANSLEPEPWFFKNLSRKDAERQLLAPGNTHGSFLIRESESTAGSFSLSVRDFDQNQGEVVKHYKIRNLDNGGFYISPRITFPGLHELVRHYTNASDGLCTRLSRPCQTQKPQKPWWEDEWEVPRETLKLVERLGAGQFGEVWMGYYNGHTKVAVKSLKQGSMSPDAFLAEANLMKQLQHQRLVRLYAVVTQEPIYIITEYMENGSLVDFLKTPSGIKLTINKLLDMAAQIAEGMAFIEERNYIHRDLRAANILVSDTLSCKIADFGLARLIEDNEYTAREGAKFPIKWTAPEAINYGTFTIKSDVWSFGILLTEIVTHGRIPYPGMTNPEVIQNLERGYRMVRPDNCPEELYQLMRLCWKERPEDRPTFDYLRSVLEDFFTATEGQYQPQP
From the text: (§1) These assays may be conducted by DiscoverX (formerly Ambit; San Diego, Calif.).

Syk = Syk (Homo sapiens (Human), UniProt P43405); assay: KINOMEscan dissociation constant, Syk; type: binding
From the text: as §1

p38 MAPKα = p38 MAPKα (Homo sapiens (Human), UniProt Q16539); assay: KINOMEscan dissociation constant, p38 MAPKα; type: binding
p38 MAPKα, sequence (Q16539 whole entry): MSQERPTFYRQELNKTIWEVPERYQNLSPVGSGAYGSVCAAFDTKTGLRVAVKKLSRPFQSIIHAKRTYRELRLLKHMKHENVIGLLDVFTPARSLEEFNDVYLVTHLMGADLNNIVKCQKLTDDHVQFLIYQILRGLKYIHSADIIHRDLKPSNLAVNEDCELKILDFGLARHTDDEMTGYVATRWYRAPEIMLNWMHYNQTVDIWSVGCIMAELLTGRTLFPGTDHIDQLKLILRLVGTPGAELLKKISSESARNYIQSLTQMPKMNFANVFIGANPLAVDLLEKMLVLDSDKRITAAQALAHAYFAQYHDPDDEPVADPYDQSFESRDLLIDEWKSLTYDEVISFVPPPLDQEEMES
From the text: as §1

hERG = hERG (Homo sapiens (Human), UniProt Q12809); assay: hERG inhibition, IonWorks patch clamp electrophysiology; type: cell-based; details: human, hERG, read-out: % Inhibition at Top Concentration
hERG, sequence (Q12809 whole entry): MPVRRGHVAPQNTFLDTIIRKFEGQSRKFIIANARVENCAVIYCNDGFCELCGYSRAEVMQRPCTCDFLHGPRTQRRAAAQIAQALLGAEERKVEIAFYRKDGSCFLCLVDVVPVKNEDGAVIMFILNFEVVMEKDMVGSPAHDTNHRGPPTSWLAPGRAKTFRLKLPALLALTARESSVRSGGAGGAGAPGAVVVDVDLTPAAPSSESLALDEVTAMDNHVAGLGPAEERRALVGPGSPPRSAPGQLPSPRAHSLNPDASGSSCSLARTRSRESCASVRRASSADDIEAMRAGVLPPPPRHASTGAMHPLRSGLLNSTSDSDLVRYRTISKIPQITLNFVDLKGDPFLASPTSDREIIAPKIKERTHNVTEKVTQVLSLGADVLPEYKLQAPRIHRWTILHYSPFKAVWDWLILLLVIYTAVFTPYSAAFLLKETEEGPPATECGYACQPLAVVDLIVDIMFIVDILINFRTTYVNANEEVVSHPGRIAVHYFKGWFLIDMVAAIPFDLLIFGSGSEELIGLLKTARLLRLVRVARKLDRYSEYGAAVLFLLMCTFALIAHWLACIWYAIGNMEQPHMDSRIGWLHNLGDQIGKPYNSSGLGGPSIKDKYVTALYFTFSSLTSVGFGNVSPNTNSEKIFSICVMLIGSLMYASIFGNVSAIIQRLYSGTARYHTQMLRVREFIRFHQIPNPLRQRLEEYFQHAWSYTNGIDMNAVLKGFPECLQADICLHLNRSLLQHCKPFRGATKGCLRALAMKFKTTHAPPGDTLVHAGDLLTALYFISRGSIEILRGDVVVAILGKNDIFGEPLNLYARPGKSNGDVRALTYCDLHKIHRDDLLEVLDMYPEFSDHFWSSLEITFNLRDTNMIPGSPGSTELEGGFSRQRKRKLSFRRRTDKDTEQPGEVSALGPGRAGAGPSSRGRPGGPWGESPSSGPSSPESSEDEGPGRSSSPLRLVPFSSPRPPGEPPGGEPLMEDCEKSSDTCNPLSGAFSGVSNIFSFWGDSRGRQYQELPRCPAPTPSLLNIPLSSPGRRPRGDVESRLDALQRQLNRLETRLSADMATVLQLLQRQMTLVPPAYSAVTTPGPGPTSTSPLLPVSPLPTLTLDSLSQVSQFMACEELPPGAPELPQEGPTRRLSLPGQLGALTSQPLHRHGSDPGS
Method: (§2) Compounds of the invention were tested for inhibition of the human ether a go-go (hERG) channel using IonWorks™ patch clamp electrophysiology at Essen Bioscience (Welwyn Garden City, England).

[2] = molecular target: human ether a go-go (hERG) channel (Homo sapiens (Human), UniProt Q12809); assay: as above; type: cell-based; details: IonWorks patch clamp
human ether a go-go (hERG) channel, sequence (Q12809 whole entry): as above
Method: as §2

GSK 3α = GSK 3α (Homo sapiens (Human), UniProt P49840); assay: GSK 3α enzyme inhibition (Method 2), Z-LYTE FRET; type: biochemical; details: read-out: IC50 Values for Enzyme Inhibition GSK3α
GSK 3α, sequence (P49840 whole entry): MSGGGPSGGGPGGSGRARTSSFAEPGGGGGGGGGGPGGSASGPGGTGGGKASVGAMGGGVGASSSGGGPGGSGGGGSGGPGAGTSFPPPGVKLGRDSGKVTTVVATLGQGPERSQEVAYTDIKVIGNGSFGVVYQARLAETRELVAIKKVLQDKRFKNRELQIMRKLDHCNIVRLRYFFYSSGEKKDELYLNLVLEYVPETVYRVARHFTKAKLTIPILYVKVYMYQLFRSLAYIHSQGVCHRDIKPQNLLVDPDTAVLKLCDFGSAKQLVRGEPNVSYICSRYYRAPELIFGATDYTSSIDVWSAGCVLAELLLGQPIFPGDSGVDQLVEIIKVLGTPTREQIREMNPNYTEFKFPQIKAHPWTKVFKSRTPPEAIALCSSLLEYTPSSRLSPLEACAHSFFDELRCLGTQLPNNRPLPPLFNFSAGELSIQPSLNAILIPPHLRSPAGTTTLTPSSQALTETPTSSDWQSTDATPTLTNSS
In short: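 Z-LYTE format: the protease cleaves only non-phosphorylated peptide, and the donor/acceptor (coumarin/fluorescein) ratio reports phosphorylation after a 1 hr kinase reaction with peptide (8 μM stock) and ATP (40 μM stock).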

non-mutant kinases = assay: KinomeScan Selectivity Scores; type: binding; details: for KinomeScan Selectivity Score S(1): (non-mutant kinases with % Ctrl <1)/(non-mutant kinases tested); for KinomeScan Selectivity Score S(10): (non-mutant kinases with % Ctrl <10)/(non-mutant kinases tested)
From the text: as §1

[3] = Solubility in fasted-state simulated colonic fluid (FaSSCoF) at pH 6.5; type: physicochemical; details: 25 °C, pH 6.5, fassgf or other biorelevant, thermodynamic from solid
In short: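 Compounds were suspended at up to 2-10 mg/mL in pH 6.5 Tris/maleate FaSSCoF containing a five-bile-acid mixture, phosphatidylcholine, palmitic acid and BSA. After 24 h equilibration at 25° C the suspension was filtered and the filtrate quantified by HPLC peak area against a standard.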

B-Raf = B-Raf (Homo sapiens (Human), UniProt P15056); assay: KINOMEscan binding of B-Raf to its standard ligand
B-Raf, sequence (P15056 whole entry): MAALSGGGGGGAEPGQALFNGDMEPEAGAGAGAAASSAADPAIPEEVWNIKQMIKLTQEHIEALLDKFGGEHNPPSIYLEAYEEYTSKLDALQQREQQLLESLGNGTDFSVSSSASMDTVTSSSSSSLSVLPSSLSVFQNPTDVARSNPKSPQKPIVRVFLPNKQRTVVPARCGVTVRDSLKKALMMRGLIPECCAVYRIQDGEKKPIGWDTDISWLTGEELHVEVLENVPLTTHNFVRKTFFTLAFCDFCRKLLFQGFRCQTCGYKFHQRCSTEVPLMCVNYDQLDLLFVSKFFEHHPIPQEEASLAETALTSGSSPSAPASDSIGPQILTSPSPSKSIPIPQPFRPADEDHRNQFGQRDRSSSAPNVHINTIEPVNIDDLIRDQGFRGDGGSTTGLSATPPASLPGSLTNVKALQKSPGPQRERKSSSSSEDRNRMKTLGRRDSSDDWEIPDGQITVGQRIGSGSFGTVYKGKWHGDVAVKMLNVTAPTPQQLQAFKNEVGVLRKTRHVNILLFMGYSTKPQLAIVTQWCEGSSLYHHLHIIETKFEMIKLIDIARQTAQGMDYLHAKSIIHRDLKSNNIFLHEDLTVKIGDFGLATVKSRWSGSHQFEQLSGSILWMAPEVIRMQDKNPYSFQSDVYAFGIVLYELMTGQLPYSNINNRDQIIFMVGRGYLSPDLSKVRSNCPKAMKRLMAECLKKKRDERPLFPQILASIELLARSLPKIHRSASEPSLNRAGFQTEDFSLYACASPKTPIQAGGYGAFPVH
From the text: as §1

B-Raf (V600E) = B-Raf (V600E) (Homo sapiens (Human), UniProt P15056, V600E); assay: KINOMEscan binding of B-Raf (V600E) to its standard ligand
B-Raf (V600E), sequence (P15056 whole entry V600E): as the sequence (P15056 whole entry) above, with V600E counted along it
From the text: as §1

Jurkat cells = assay: Cell cytotoxicity assay (r); type: cell-based, human; details: 24 hours, 5 μg/mL
In short: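 Viability read by flow cytometry as the fraction of propidium iodide-negative cells (7.5 μg/mL PI, 15 min), relative to 1.0% DMSO control. Beforehand, 1×10^5 Jurkat cells in RPMI/10% FBS were treated 24 h at 37° C., 5% CO2 with test compound at final 20, 5 or 1 μg/mL.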

[4] = Pharmacokinetics and total colon distribution after single oral administration; type: in vivo, male C57BL/6 mice; details: male, C57BL/6, mouse, mice, oral 5 mg/kg
Method: Studies were conducted by Sai Life Sciences (Hinjewadi, Pune, India) to investigate the systemic pharmacokinetics and total colon tissue distribution of compounds of the invention. In particular, pharmacokinetic studies were carried out in male C57BL/6 mice following a single oral administration of the compound.

[5] = blood, measured cpd = dosed cpd (19, 47 as Na salt), read-out: Mean blood concentration
[6] = total colon tissue, measured cpd = dosed cpd (1, 19, 47 as Na salt, 44 as NH4+ salt), read-out: total colon level
[7] = total colon, measured cpd = dosed cpd (1, 19, 47 as Na salt, 44 as NH4+ salt), read-out: total colon level

COc1cc(Nc2cc(Oc3ccc(NC(=O)Nc4cc(C(C)(C)C)cc(NS(C)(=O)=O)c4OC)c4ccccc34)ccn2)ccc1C(=O)O.Cl [Example 1, hydrochloride salt]
Purity (%) at week n = 2 ([1]; stored at 5° C., 2 weeks): 98.0% | Purity (%) at week n = 4 ([1]; stored at 5° C.): 98.0% | Purity (%) at week n = 1 ([1]; stored at 25° C., 1 week): 98.0%

COc1cc(Nc2cc(Oc3ccc(NC(=O)Nc4cc(C(C)(C)C)cc(NS(C)(=O)=O)c4OC)c4ccccc34)ccn2)ccc1C(=O)O [Example 1, sodium salt]
Purity (%) at week n = 4 ([1]; stored at 40° C.): 76.0%

COc1cc(Nc2cc(Oc3ccc(NC(=O)Nc4cc(C(C)(C)C)cc(NS(C)(=O)=O)c4OC)c4ccccc34)ccn2)ccc1C(=O)NCCN1CCOCC1 [Example 2, 4-((4-((4-(3-(5-(tert-Butyl)-2-methoxy-3-(methylsulfonamido)phenyl)ureido)naphthalen-1-yl)oxy)pyridin-2-yl)amino)-2-methoxy-N-(2-morpholinoethyl)benzamide]
Kd (Lck): 5.8 nM | Kd (Syk): 18 nM | Kd (p38 MAPKα): 23 nM | inhibition at 3 µM (hERG; 3 μM): -2% | IC50 [2]: > 3300 nM | IC50 (GSK 3α): 2300 nM

COc1cc(Nc2cc(Oc3ccc(NC(=O)Nc4cc(C(C)(C)C)cc(NS(C)(=O)=O)c4OC)c4ccccc34)ccn2)cc(OC)c1C(=O)NCCOCCOCCO [Example 36, 4-((4-((4-(3-(5-(tert-butyl)-2-methoxy-3-(methylsulfonamido)phenyl)ureido)naphthalen-1-yl)oxy)pyridin-2-yl)amino)-N-(2-(2-(2-hydroxyethoxy)ethoxy)ethyl)-2,6-dimethoxybenzamide]
KinomeScan Selectivity Score S(1) (non-mutant kinases; 50 nM): 0.002 | KinomeScan Selectivity Score S(10) (non-mutant kinases; 50 nM): 0.050 | KinomeScan Selectivity Score S(1) (non-mutant kinases; 500 nM): 0.079 | solubility thermodynamic at 24 h ([3]; pH 6.5 FaSSCoF Solubility (mg/mL) Run 1): 6 µg/mL (≈ 6.97 µM) | solubility thermodynamic at 24 h ([3]; pH 6.5 FaSSCoF Solubility (mg/mL) Run 2): 6 µg/mL (≈ 6.97 µM) | effect on the binding of B-Raf to its standard ligand (B-Raf): did not have any significant effect | effect on the binding of B-Raf (V600E) to its standard ligand (B-Raf (V600E)): did not have any significant effect | inhibition at 11 µM (hERG): 24% | IC50 [2]: > 11000 nM

COc1cc(Nc2cc(Oc3ccc(NC(=O)Nc4cc(C(C)(C)C)cc(NS(C)(=O)=O)c4OC)c4ccccc34)ccn2)cc(OC)c1C(=O)NCCOCCOCCOP(=O)(O)O [Example 47, 2-(2-(2-(4-((4-((4-(3-(5-(tert-butyl)-2-methoxy-3-(methylsulfonamido)phenyl)ureido)-naphthalen-1-yl)oxy)pyridin-2-yl)amino)-2,6-dimethoxybenzamido)ethoxy)ethoxy)ethyl dihydrogen phosphate]
KinomeScan Selectivity Score S(10) (non-mutant kinases; 50 nM): 0.042 | KinomeScan Selectivity Score S(1) (non-mutant kinases; 500 nM): 0.074 | effect on the binding of B-Raf to its standard ligand (B-Raf): did not have any significant effect | % Viability at 5 μg/mL (Jurkat cells): 96.0% | concentration at 0.5 h [4, 5]: 0 ng/mL | concentration at 1 h [4, 5]: 0 ng/mL | concentration at 2 h [4, 5]: 0 ng/mL | concentration at 4 h [4, 5]: 0 ng/mL | concentration at 6 h [4, 5]: 0 ng/mL | concentration at 8 h [4, 5]: 0 ng/mL | concentration at 12 h [4, 5]: 0 ng/mL | concentration at 24 h [4, 5]: 0 ng/mL | concentration at 2 h [4, 6]: 0 ng/g | concentration at 4 h [4, 6]: 0 ng/g | concentration at 6 h [4, 6]: 0 ng/g | concentration at 8 h [4, 6]: 0 ng/g | concentration at 12 h [4, 6]: 0 ng/g | concentration at 0.5 h [4, 7]: 0 ng/g | concentration at 1 h [4, 7]: 0 ng/g | concentration at 24 h [4, 7]: 0 ng/g | effect on the binding of B-Raf (V600E) to its standard ligand (B-Raf (V600E)): did not have any significant effect | inhibition at 11 µM (hERG): 19% | IC50 [2]: > 11000 nM
